Our source for the relative viability values is the supplement of paper PMC10307832.

Holding throughout (assay): relative viability (nuclei count vs DMSO), 5 days (fraction); higher = more cells survive
Compound in experiment [1]: CC1=CC(=CC=C1)NC2=NC(=CS2)C3=CC=NC=C3 + Nc1nc2[nH]cc(CCc3ccc(C(=O)N[C@@H](CCC(=O)O)C(=O)O)cc3)c2c(=O)[nH]1 [Pemetrexed] (partner 0.2 µM)
In a few lines: (§1)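 Lung cancer cell lines in 1536-well plates were dosed by pin tool the day after seeding, either with one drug alone or with a fixed anchor-drug dose plus five library-drug doses (not always all listed) in √10 steps. After 5 days, cells were fixed and their nuclei stained in one step (final 0.05% Triton X-100, 1% formaldehyde, 1 ug/ml Hoechst), then counted on 4× images. Relative viability is the nuclei count in treated wells divided by that in vehicle wells. Values are medians of duplicate plates.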

Compound in the experiment “Masitinib + OSI-027”: Cc1ccc(NC(=O)c2ccc(CN3CCN(C)CC3)cc2)cc1Nc1nc(-c2cccnc2)cs1 [Masitinib] + COc1cccc2cc(-c3nc([C@H]4CC[C@H](C(=O)O)CC4)n4ncnc(N)c34)[nH]c12 [OSI-027] (partner 0.5 µM)
The gist of the method:
as §1

Compound in experiment [2]: CC1=CC(=CC=C1)NC2=NC(=CS2)C3=CC=NC=C3 + CCNC(=O)c1noc(-c2cc(C(C)C)c(O)cc2O)c1-c1ccc(CN2CCOCC2)cc1 [Luminespib] (partner 0.01 µM)
The gist of the method:
as §1

Compound in experiment [3]: CC1=CC(=CC=C1)NC2=NC(=CS2)C3=CC=NC=C3 + C[C@@H](Oc1cc(-c2cnn(C3CCNCC3)c2)cnc1N)c1c(Cl)ccc(F)c1Cl [Crizotinib] (partner 1 µM)
The gist of the method: as §1

With NCI-H1993, the relative viability amounted to 0.507 in experiment [1] (first compound 0.08 µM); 0.517 in experiment [1] (first compound 0.253 µM); 0.618 in experiment [1] (first compound 0.8 µM); 0.547 in experiment [1] (first compound 2.53 µM); 0.578 in experiment [1] (first compound 8 µM); 0.533 with Masitinib + OSI-027 (first compound 0.01 µM). Also, the relative viability was determined as 0.533 with Masitinib + OSI-027 (first compound 0.03162 µM); 0.489 in the experiment with Masitinib + OSI-027 (first compound 0.1 µM); 0.541 with Masitinib + OSI-027 (first compound 0.3162 µM); 0.514 with Masitinib + OSI-027 (first compound 1 µM); 0.767 in experiment [2] (first compound 0.08 µM); 0.545 in experiment [2] (first compound 0.253 µM). Further, the relative viability was found to be 0.546 in experiment [2] (first compound 0.8 µM); 0.624 in experiment [2] (first compound 2.53 µM); 0.7 in experiment [2] (first compound 8 µM); 0.847 in experiment [3] (first compound 0.08 µM); 0.706 in experiment [3] (first compound 0.253 µM); 0.853 in experiment [3] (first compound 0.8 µM). For the same cell line, the figures for the relative viability in experiment [3] (first compound 2.53 µM) and in experiment [3] (first compound 8 µM) were 0.91 and 0.946, respectively.
As for NCI-H2009, the relative viability in experiment [1] (first compound 0.08 µM) was found to be 0.938; in experiment [1] (first compound 0.253 µM), 1.05; in experiment [1] (first compound 0.8 µM), 1; in experiment [1] (first compound 2.53 µM), 1; in experiment [1] (first compound 8 µM), 0.914; with Masitinib + OSI-027 (first compound 0.01 µM), 0.591. The relative viability with Masitinib + OSI-027 (first compound 0.03162 µM) was found to be 0.654; in the experiment with Masitinib + OSI-027 (first compound 0.1 µM) it was 0.646; in the experiment with Masitinib + OSI-027 (first compound 0.3162 µM) it was 0.616; in the experiment with Masitinib + OSI-027 (first compound 1 µM), 0.606; in experiment [2] (first compound 0.08 µM), 1.01; in experiment [2] (first compound 0.253 µM), 0.953. In addition, the relative viability was found to be 0.905 in experiment [2] (first compound 0.8 µM); 0.988 in experiment [2] (first compound 2.53 µM); 1.05 in experiment [2] (first compound 8 µM); 0.917 in experiment [3] (first compound 0.08 µM); 0.97 in experiment [3] (first compound 0.253 µM); 1.01 in experiment [3] (first compound 0.8 µM). Also, the relative viability in experiment [3] (first compound 2.53 µM) amounted to 0.939; in experiment [3] (first compound 8 µM) it was 0.89.
Take NCI-H2023: the relative viability in experiment [1] (first compound 0.08 µM) amounted to 0.211; in experiment [1] (first compound 0.253 µM) it was 0.18; in experiment [1] (first compound 0.8 µM), 0.274; in experiment [1] (first compound 2.53 µM), 0.195; in experiment [1] (first compound 8 µM), 0.187; with Masitinib + OSI-027 (first compound 0.01 µM) it was 0.387. Further, the relative viability with Masitinib + OSI-027 (first compound 0.03162 µM) was 0.412; with Masitinib + OSI-027 (first compound 0.1 µM) it was 0.592; in the experiment with Masitinib + OSI-027 (first compound 0.3162 µM), 0.271; with Masitinib + OSI-027 (first compound 1 µM), 0.27; in experiment [2] (first compound 0.08 µM), 0.716; in experiment [2] (first compound 0.253 µM) it was 0.706. Besides, the relative viability came out at 0.889 in experiment [2] (first compound 0.8 µM); 0.659 in experiment [2] (first compound 2.53 µM); 0.427 in experiment [2] (first compound 8 µM); 0.603 in experiment [3] (first compound 0.08 µM); 0.525 in experiment [3] (first compound 0.253 µM); 0.507 in experiment [3] (first compound 0.8 µM). Also, the relative viability turned out to be 0.758 in experiment [3] (first compound 2.53 µM) and 0.37 in experiment [3] (first compound 8 µM).
NCI-H2085: the relative viability is 0.774 in experiment [1] (first compound 0.08 µM); 0.943 in experiment [1] (first compound 0.253 µM); 0.84 in experiment [1] (first compound 0.8 µM); 0.806 in experiment [1] (first compound 2.53 µM); 0.711 in experiment [1] (first compound 8 µM); 0.627 with Masitinib + OSI-027 (first compound 0.01 µM). The relative viability with Masitinib + OSI-027 (first compound 0.03162 µM) is 0.666; with Masitinib + OSI-027 (first compound 0.1 µM), 0.918; in the experiment with Masitinib + OSI-027 (first compound 0.3162 µM) it was 0.47; with Masitinib + OSI-027 (first compound 1 µM), 0.604; in experiment [2] (first compound 0.08 µM), 0.381; in experiment [2] (first compound 0.253 µM), 0.428. Also, the relative viability was 0.444 in experiment [2] (first compound 0.8 µM); 0.383 in experiment [2] (first compound 2.53 µM); 0.393 in experiment [2] (first compound 8 µM); 0.64 in experiment [3] (first compound 0.08 µM); 0.891 in experiment [3] (first compound 0.253 µM); 0.918 in experiment [3] (first compound 0.8 µM). Moreover, the relative viability in experiment [3] (first compound 2.53 µM) stood at 0.877; in experiment [3] (first compound 8 µM), 0.627.
